Data published in PubChem BioAssay (NCI).
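Results reflect a 48-hour exposure of cells in 96-well plates to compound at five concentrations. Here, GI50 denotes the concentration required for 50% inhibition of growth. TGI: total growth inhibition.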

What was measured:
Experiment in all cases: inhibition of tumour cell growth, NCI panel, 48 h
[1] = tested on: SF-268 CNS
[2] = tested on: COLO 205 colon
[3] = tested on: KM12 colon
[4] = tested on: SF-539 CNS
[5] = tested on: EKVX NSCLC
[6] = tested on: IGROV1 ovarian
[7] = tested on: M14 melanoma
[8] = tested on: RXF 393 renal
[9] = tested on: LOX IMVI melanoma
[10] = tested on: UACC-257 melanoma

Row | Structure (SMILES) | GI50 [1] | TGI [1] | GI50 [2] | TGI [2] | GI50 [3] | TGI [3] | GI50 [4] | TGI [4] | GI50 [5] | TGI [5] | GI50 [6] | TGI [6] | GI50 [7] | TGI [7] | GI50 [8] | TGI [8] | GI50 [9] | TGI [9] | GI50 [10] | TGI [10]
1 | COc1cc2c(cc1OCCCCNC(=O)c1cc3ccccc3[nH]1)N=CC1CCCN1C2=O (stereo not given) | 4.4 µM | 28 µM | 16 µM | > 100 µM | 16.9 µM | 52.6 µM | 8.57 µM | 41.7 µM | 17.8 µM | 42.2 µM | 18.1 µM | > 100 µM | 28.2 µM | > 100 µM | 2.35 µM | 6.28 µM | 8.96 µM | 63.8 µM | 17.4 µM | 43.8 µM
2 | O=C(CC(=O)N1N=C(n2ccc3ccccc32)CC1c1ccccc1)Nc1cccc(Cl)c1 (stereo not given) | – | > 100 µM | – | > 100 µM | – | > 100 µM | – | > 100 µM | – | > 100 µM | – | > 100 µM | – | > 100 µM | – | > 100 µM | – | > 100 µM | – | > 100 µM
3 | CC(=O)NNc1nc(C)c(C(=O)NNC(=O)C(=O)Nc2ccc(C)c(C)c2)s1 | – | > 100 µM | – | > 100 µM | – | > 100 µM | – | > 100 µM | – | > 100 µM | – | > 100 µM | – | > 100 µM | – | > 100 µM | – | > 100 µM | – | > 100 µM
4 | CC(C)=CC/C=C(/C)[C@H]1CC[C@]2(C)[C@@H]1CC[C@@H]1[C@@]3(C)CCC(=O)NC(C)(C)[C@@H]3CC[C@]12C | 17.2 µM | 34.6 µM | 25.3 µM | 64.7 µM | 18.7 µM | 37.5 µM | 16.5 µM | 30.5 µM | 27.7 µM | 84 µM | 10.6 µM | 26.5 µM | 17.8 µM | 39.3 µM | 16.8 µM | 32.4 µM | 17.9 µM | 32.4 µM | 31.7 µM | > 100 µM
5 | CN(C)CC(C(=O)c1ccccc1)c1ccccc1 (stereo not given) | 3.26 µM | 10.8 µM | 1.77 µM | 3.33 µM | 1.74 µM | 3.83 µM | 2.25 µM | 5.04 µM | 10.2 µM | 27.1 µM | 2.2 µM | 5.47 µM | 1.46 µM | 2.92 µM | 1.69 µM | 4.46 µM | 0.765 µM | 2.33 µM | 1.99 µM | 5.81 µM
6 | CCc1cccc(C(C)CC)c1N=C(NC(=O)c1ccccc1C(=O)NC(=Nc1c(CC)cccc1C(C)CC)SC)SC (stereo not given) | – | > 100 µM | – | > 100 µM | – | > 100 µM | – | 68.8 µM | – | > 100 µM | – | > 100 µM | – | 44.5 µM | – | > 100 µM | – | > 100 µM | – | > 100 µM
7 | COC1=C(OC)C(=O)C(/C=C(\C)C(=O)O)=C(C)C1=O | > 100 µM | > 100 µM | > 100 µM | > 100 µM | > 100 µM | > 100 µM | > 100 µM | > 100 µM | > 100 µM | > 100 µM | > 100 µM | > 100 µM | > 100 µM | > 100 µM | > 100 µM | > 100 µM | > 100 µM | > 100 µM | > 100 µM | > 100 µM
8 | Nc1nc(-c2ccccc2)c(-c2ccccc2)c(-c2nc(N)nc(-c3ccccc3)c2-c2ccccc2)n1 | – | > 100 µM | – | > 100 µM | – | > 100 µM | – | > 100 µM | – | > 100 µM | – | > 100 µM | – | > 100 µM | – | > 100 µM | – | > 100 µM | – | > 100 µM
